Measured values as given in PubChem BioAssay AID330 (DTP/NCI, 2004).
Where “and” joins values, the source holds several entries; their conditions need not be identical. Identical values can stand only once. Toxic doses and inconclusive results are not listed. Rule for the calls: active = survival T/C of 150% or more; inactive = T/C below 125% in these data.

System: P388 leukemia ip, CD2F1 mice, survival T/C
Assay: NCI In Vivo Anticancer Drug Screen. Data for tumor model P388 Leukemia (intraperitoneal) in CD2F1 (CDF1) mice
Settings: endpoint: median survival time, higher = longer survival
Method in brief: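 Mice carrying the transplanted tumor received test compound or vehicle. Survival was recorded in each group, and the value is the treated-group measurement divided by that of the vehicle-treated control group.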

[1] = dose: 60.0 mg/kg/injection, schedule: Q01DX005 (ip), vehicle: saline with Tween-80
[2] = dose: 120.0 mg/kg/injection, schedule: Q01DX005 (ip), vehicle: saline with Tween-80
[3] = dose: 240.0 mg/kg/injection, schedule: Q01DX005 (ip), vehicle: saline with Tween-80
[4] = dose: 50.0 mg/kg/injection, schedule: Q01DX005 (ip), vehicle: saline with Tween-80
[5] = dose: 100.0 mg/kg/injection, schedule: Q01DX005 (ip), vehicle: saline with Tween-80
[6] = dose: 50.0 mg/kg/injection, schedule: Q01DX009 (ip), vehicle: saline with Tween-80
[7] = dose: 100.0 mg/kg/injection, schedule: Q01DX009 (ip), vehicle: saline with Tween-80
[8] = dose: 50.0 mg/kg/injection, schedule: Q01DX009 (ip), vehicle: Klucel (hydroxypropylcellulose) (HPC)
[9] = dose: 100.0 mg/kg/injection, schedule: Q01DX009 (ip), vehicle: Klucel (hydroxypropylcellulose) (HPC)
[10] = dose: 60.0 mg/kg/injection, schedule: Q01DX005 (ip), vehicle: Klucel (hydroxypropylcellulose) (HPC)
[11] = dose: 120.0 mg/kg/injection, schedule: Q01DX005 (ip), vehicle: Klucel (hydroxypropylcellulose) (HPC)
[12] = dose: 50.0 mg/kg/injection, schedule: Q01DX005 (ip), vehicle: Klucel (hydroxypropylcellulose) (HPC)
[13] = dose: 100.0 mg/kg/injection, schedule: Q01DX005 (ip), vehicle: Klucel (hydroxypropylcellulose) (HPC)
[14] = dose: 100.0 mg/kg/injection, schedule: Q04DX002 (ip), vehicle: Klucel (hydroxypropylcellulose) (HPC)
[15] = dose: 200.0 mg/kg/injection, schedule: Q04DX002 (ip), vehicle: Klucel (hydroxypropylcellulose) (HPC)
[16] = dose: 400.0 mg/kg/injection, schedule: Q04DX002 (ip), vehicle: Klucel (hydroxypropylcellulose) (HPC)
[17] = dose: 50.0 mg/kg/injection, schedule: Q01DX005 (ip), vehicle: saline
[18] = dose: 100.0 mg/kg/injection, schedule: Q01DX005 (ip), vehicle: saline
[19] = dose: 200.0 mg/kg/injection, schedule: Q01DX005 (ip), vehicle: saline
[20] = dose: 12.5 mg/kg/injection, schedule: Q01DX009 (ip), vehicle: saline with Tween-80
[21] = dose: 200.0 mg/kg/injection, schedule: Q01DX009 (ip), vehicle: Klucel (hydroxypropylcellulose) (HPC)

Measured: T/C

C/C1=C\C[C@@H](O)/C(C)=C/[C@H]2OC(=O)[C@H](C)[C@@H]2CC1
inactive: dose: 8.75 mg/kg/injection, schedule: Q01DX005 (ip), vehicle: Klucel (hydroxypropylcellulose) (HPC) 94 % of control | dose: 17.5 mg/kg/injection, schedule: Q01DX005 (ip), vehicle: Klucel (hydroxypropylcellulose) (HPC) 102 % of control | dose: 35.0 mg/kg/injection, schedule: Q01DX005 (ip), vehicle: Klucel (hydroxypropylcellulose) (HPC) 100 % of control | dose: 70.0 mg/kg/injection, schedule: Q01DX005 (ip), vehicle: Klucel (hydroxypropylcellulose) (HPC) 86 % of control

COC1C=CC(=O)C(C)(c2ccc(S(=O)(=O)c3ccccc3)cc2)O1 (stereo not drawn)
inactive: [1] 104 % of control | [2] 95 % of control | [3] 106 % of control

OCc1sccc1-n1cccc1
inactive: [1] 104 % of control | [2] 104 % of control | [3] 104 % of control

CC1C(c2ccccc2)OC(N2CCOCC2)C(C)(C)CN1C (stereo not drawn)
inactive: [4] 108 % of control and 93 % of control | [5] 98 % of control and 101 % of control and 116 % of control | dose: 200.0 mg/kg/injection, schedule: Q01DX005 (ip), vehicle: saline with Tween-80 101 % of control and 119 % of control and 121 % of control | dose: 400.0 mg/kg/injection, schedule: Q01DX005 (ip), vehicle: saline with Tween-80 101 % of control

Cc1ccc(NCc2ccccn2)nc1
inactive: [4] 99 % of control | [5] 89 % of control

CN(C)c1ccc(N=Nc2ccccc2)cc1
inactive: dose: 31.25 mg/kg/injection, schedule: Q01DX009 (ip), vehicle: saline with Tween-80 100 % of control | dose: 62.5 mg/kg/injection, schedule: Q01DX009 (ip), vehicle: saline with Tween-80 109 % of control

NC(=S)c1ccc(/C=N/c2nc3ccccc3s2)cc1
inactive: dose: 25.0 mg/kg/injection, schedule: Q01DX001 (ip), vehicle: Klucel (hydroxypropylcellulose) (HPC) 103 % of control | dose: 50.0 mg/kg/injection, schedule: Q01DX001 (ip), vehicle: Klucel (hydroxypropylcellulose) (HPC) 97 % of control | dose: 100.0 mg/kg/injection, schedule: Q01DX001 (ip), vehicle: Klucel (hydroxypropylcellulose) (HPC) 96 % of control and 97 % of control | dose: 200.0 mg/kg/injection, schedule: Q01DX001 (ip), vehicle: Klucel (hydroxypropylcellulose) (HPC) 97 % of control | dose: 400.0 mg/kg/injection, schedule: Q01DX001 (ip), vehicle: Klucel (hydroxypropylcellulose) (HPC) 97 % of control

CC1(C(=O)OCc2ccccc2)NCCS1 (stereo not drawn)
inactive: [6] 100 % of control | [7] 96 % of control | dose: 200.0 mg/kg/injection, schedule: Q01DX009 (ip), vehicle: saline with Tween-80 109 % of control

O=[N+]([O-])c1ccccc1OCC1CO1 (stereo not drawn)
inactive: dose: 25.0 mg/kg/injection, schedule: Q01DX009 (ip), vehicle: Klucel (hydroxypropylcellulose) (HPC) 106 % of control | [8] 105 % of control | [9] 105 % of control

O=C1C2CN(Cc3ccccc3)CC2C(=O)N1c1ccccc1 (stereo not drawn)
inactive: [10] 102 % of control | [11] 97 % of control | dose: 240.0 mg/kg/injection, schedule: Q01DX005 (ip), vehicle: Klucel (hydroxypropylcellulose) (HPC) 100 % of control

CC(=O)/C(C(=N)c1nc(C)c(C(C)=O)c(C(N)=O)n1)=C(\C)O
inactive: [12] 103 % of control | [13] 100 % of control

COC(=O)c1cc(=O)n(-c2ccccc2C)c(SC)n1
inactive: [14] 105 % of control | [15] 105 % of control

COC(=O)c1nc(N)nc(C(=O)OC)c1C(=O)c1cccnc1
inactive: [10] 95 % of control | [11] 93 % of control

[NH-]CC([NH-])=O.[NH-]CC([NH-])=O.[Ni]
inactive: dose: 1.0 mg/kg/injection, schedule: Q01DX009 (ip), vehicle: saline 100 % of control | dose: 2.0 mg/kg/injection, schedule: Q01DX009 (ip), vehicle: saline 95 % of control | dose: 4.0 mg/kg/injection, schedule: Q01DX009 (ip), vehicle: saline 100 % of control | dose: 8.0 mg/kg/injection, schedule: Q01DX009 (ip), vehicle: saline 100 % of control

CCOC(=O)N1CCC(n2nncc2OCC)CC1
inactive: [14] 102 % of control | [15] 102 % of control | [16] 105 % of control

Cc1nc2c([N+](=O)[O-])c(NCCCc3ccccc3)c([N+](=O)[O-])cc2[nH]1
inactive: dose: 50.0 mg/kg/injection, schedule: Q04DX003 (ip), vehicle: saline with Tween-80 94 % of control | dose: 100.0 mg/kg/injection, schedule: Q04DX003 (ip), vehicle: saline with Tween-80 100 % of control and 96 % of control

COC(=O)C(CCCN)NC(=O)c1ccccc1 (stereo not drawn)
inactive: [17] 99 % of control | [18] 92 % of control | [19] 90 % of control

CN(C)CCCN1c2ccccc2Sc2ccc(C(F)(F)F)cc21
inactive: [20] 123 % of control

N#CC(C(=O)CCc1nc2ccccc2[nH]1)c1nc2ccccc2s1 (stereo not drawn)
inactive: [1] 102 % of control | [2] 100 % of control | [3] 105 % of control

Nc1cc(S(=O)(=O)c2ccc(O)c(N)c2)ccc1O
inactive: dose: 100.0 mg/kg/injection, schedule: Q01DX009 (ip), vehicle: saline 111 % of control and 92 % of control | dose: 200.0 mg/kg/injection, schedule: Q01DX009 (ip), vehicle: saline 102 % of control and 104 % of control | dose: 400.0 mg/kg/injection, schedule: Q01DX009 (ip), vehicle: saline 100 % of control and 95 % of control

Cc1c(O)c2c(c(O)c1Cc1ccc(C#N)cc1)C(=O)c1ccccc1C2=O
inactive: dose: 6.25 mg/kg/injection, schedule: Q01DX009 (ip), vehicle: saline with Tween-80 94 % of control | [20] 91 % of control | dose: 25.0 mg/kg/injection, schedule: Q01DX009 (ip), vehicle: saline with Tween-80 90 % of control | [6] 91 % of control | [21] 89 % of control

CCOC(=O)C(=O)/C=C/[C@H]1[C@H](C)CC=C[C@H]1NC(=O)OCc1ccccc1
inactive: [1] 103 % of control | [2] 99 % of control | [3] 97 % of control

Cc1cc(N=Cc2ccc(C=Nc3ccc(Br)c(C)c3)cc2)ccc1Br
inactive: [8] 101 % of control | [9] 93 % of control | [21] 92 % of control

Nc1ccc2c(-c3ccccc3)cc(=O)[nH]c2c1
inactive: [12] 95 % of control | [13] 100 % of control

O=S(=O)(Nc1ncccn1)c1ccc(N=Cc2c3ccccc3nc3ccccc23)cc1
inactive: dose: 12.5 mg/kg/injection, schedule: Q04DX002 (ip), vehicle: Klucel (hydroxypropylcellulose) (HPC) 96 % of control | dose: 25.0 mg/kg/injection, schedule: Q04DX002 (ip), vehicle: Klucel (hydroxypropylcellulose) (HPC) 99 % of control | dose: 50.0 mg/kg/injection, schedule: Q04DX002 (ip), vehicle: Klucel (hydroxypropylcellulose) (HPC) 93 % of control | [14] 99 % of control | [15] 91 % of control | [16] 96 % of control

C=C1C(=O)O[C@@H]2C[C@@H](C)[C@@H]3C=CC(=O)[C@@]3(C)[C@@H](OC(=O)CCCC(=O)O[C@H]3[C@@H]4C(=C)C(=O)O[C@@H]4C[C@@H](C)[C@@H]4C=CC(=O)[C@]43C)[C@H]12
inactive: dose: 0.39 mg/kg/injection, schedule: Q01DX005 (ip), vehicle: Klucel (hydroxypropylcellulose) (HPC) 101 % of control | dose: 0.78 mg/kg/injection, schedule: Q01DX005 (ip), vehicle: Klucel (hydroxypropylcellulose) (HPC) 100 % of control | dose: 1.56 mg/kg/injection, schedule: Q01DX005 (ip), vehicle: Klucel (hydroxypropylcellulose) (HPC) 103 % of control and 118 % of control | dose: 3.12 mg/kg/injection, schedule: Q01DX005 (ip), vehicle: Klucel (hydroxypropylcellulose) (HPC) 116 % of control | dose: 6.25 mg/kg/injection, schedule: Q01DX005 (ip), vehicle: Klucel (hydroxypropylcellulose) (HPC) 109 % of control

N/C=N/OCc1ccccc1
inactive: [17] 101 % of control | [18] 104 % of control | [19] 105 % of control

S=C1SCN(Cc2ccco2)CN1Cc1ccco1
inactive: [6] 94 % of control | [7] 94 % of control

Nc1ccccc1SC(C[N+](=O)[O-])c1ccc2c(c1)OCO2 (stereo not drawn)
inactive: [1] 115 % of control | [2] 114 % of control
